Measurements as given in PMC3968228 (Cancer chemotherapy and pharmacology, 2014).

Assays:
[1] = for elimination pattern of docetaxel concentration-time profile: docetaxel 20 mg/kg i.v., male FVB mice
[2] = three new patients on ritonavir-based cART, docetaxel 70 to 100 mg/m^2; cited from earlier work
[3] = with ritonavir; cited from earlier work
[4] = male, FVB, mouse, plasma, iv, 20 mg/kg

Q: Which “elimination pattern of docetaxel concentration-time profile” value ([1]; plasma) does the source give for `CC(=O)N1CCN(c2ccc(OCC3COC(Cn4ccnc4)(c4ccc(Cl)cc4Cl)O3)cc2)CC1` (stereo not shown) [ketoconazole, Ketoconazole] here?
A: Its value is “biphasic”.

Q: Which “elimination pattern of docetaxel concentration-time profile” value ([1]; plasma) does the source give for `CC(=O)O[C@@]12CO[C@@H]1C[C@H](O)[C@@]1(C)C(=O)[C@H](O)C3=C(C)[C@@H](OC(=O)[C@H](O)[C@@H](NC(=O)OC(C)(C)C)c4ccccc4)C[C@@](O)([C@@H](OC(=O)c4ccccc4)[C@H]21)C3(C)C` [Docetaxel] here?
A: Its value is “triphasic”.

Q: And the AUC(0-inf) [1, 4]?
A: The AUC(0-inf) was 10300 ng·h/mL.

Q: And the Cmax [1, 4]?
A: Its Cmax is 18100 ± 2200 ng/mL.

Q: And the clearance [1, 4]?
A: The clearance was 32.2 mL/min/kg.

Q: And the concentration at 24 hr [1, 4]?
A: Its concentration at 24 hr is 9 ± 0.7 ng/mL.

Q: What about the toxicity [2] of the same compound?
A: The toxicity was “severe toxicities”.

Q: What does the source list for `O=C1Nc2ccc(Cl)cc2[C@@](C#CC2CC2)(C(F)(F)F)O1` [efavirenz, Efavirenz]?
A: effect on docetaxel exposure (AUC) ([1]; CYP3A4 inducers p.o. x4d before docetaxel 20 mg/kg i.v.): did not have a significant effect; elimination pattern of docetaxel concentration-time profile ([1]; plasma): triphasic

Q: Which “oral bioavailability of docetaxel” value [3] does the source give for `CC(C)c1nc(CN(C)C(=O)N[C@H](C(=O)N[C@@H](Cc2ccccc2)C[C@H](O)[C@H](Cc2ccccc2)NC(=O)OCc2cncs2)C(C)C)cs1` [ritonavir, Ritonavir] here?
A: The value was 130-160 % of control.
